Holding throughout (format): biochemical
In assay [1] the target is T1, ENPP1 (Homo sapiens, UniProt P22413).
T1 sequence (P22413 1-925): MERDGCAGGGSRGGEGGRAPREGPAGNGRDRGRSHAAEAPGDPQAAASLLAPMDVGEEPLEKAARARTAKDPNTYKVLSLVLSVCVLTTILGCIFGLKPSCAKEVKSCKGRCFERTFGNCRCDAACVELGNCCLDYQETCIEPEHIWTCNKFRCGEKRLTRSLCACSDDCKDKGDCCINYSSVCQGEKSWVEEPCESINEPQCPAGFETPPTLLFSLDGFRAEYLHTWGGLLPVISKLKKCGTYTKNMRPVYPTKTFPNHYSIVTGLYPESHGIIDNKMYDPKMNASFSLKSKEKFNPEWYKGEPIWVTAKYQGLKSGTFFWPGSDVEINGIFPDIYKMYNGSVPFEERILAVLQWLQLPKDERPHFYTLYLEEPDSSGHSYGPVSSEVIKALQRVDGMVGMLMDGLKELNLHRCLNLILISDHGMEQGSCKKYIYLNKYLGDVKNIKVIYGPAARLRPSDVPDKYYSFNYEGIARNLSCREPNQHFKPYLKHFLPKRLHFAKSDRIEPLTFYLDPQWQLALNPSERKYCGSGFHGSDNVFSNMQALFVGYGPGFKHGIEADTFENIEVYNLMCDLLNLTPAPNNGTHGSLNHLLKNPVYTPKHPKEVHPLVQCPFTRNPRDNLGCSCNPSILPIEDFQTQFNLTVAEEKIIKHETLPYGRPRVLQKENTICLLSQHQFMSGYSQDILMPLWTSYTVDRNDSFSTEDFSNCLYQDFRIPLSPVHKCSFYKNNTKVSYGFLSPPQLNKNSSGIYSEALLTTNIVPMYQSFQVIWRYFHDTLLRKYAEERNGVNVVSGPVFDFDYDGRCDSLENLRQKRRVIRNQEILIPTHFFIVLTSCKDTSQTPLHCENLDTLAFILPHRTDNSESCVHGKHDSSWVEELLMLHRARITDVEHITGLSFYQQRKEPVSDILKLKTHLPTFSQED
The assay is described as follows: Indirect quantitation of 2',3'-cGAMP hydrolysis (AMP-Glo Assay kit). As to conditions: cGAMP substrate; Ki from IC50 by Cheng-Prusoff; read-out: ENPP1 Inhibition -cGAMP: Ki.

Assay [2] has as its target T1, ENPP1. Briefly: Substrate selectivity ratio, inhibition of cGAMP hydrolysis versus ATP hydrolysis. The note with it: ratio Ki AMP-pNP / Ki cGAMP. Here is the method: The selectivity ratios for inhibition of cGAMP hydrolysis versus ATP hydrolysis were then calculated as follows: […]
Assay [3] concerns the target T1, ENPP1. The assay is described as follows: ENPP1 enzyme assay with AMP-pNP substrate (hydrolysis of ATP analog). As to conditions: AMP-pNP substrate (ATP analog); Ki from IC50 by Cheng-Prusoff; read-out: ENPP1 Inhibition _AMP-pNP: Ki. The method, boiled down: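 Reactions ran 20 min at 37 °C, pH 8.5 Tris buffer with NaCl, CaCl2, ZnCl2, using 300 µM AMP-pNP and 60 ng/well recombinant human ENPP1; inhibitor range 10 µM–30 pM, duplicates.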

pKi: −log10 of the molar value.

In general, pKi refers to the negative decadic logarithm of the Ki, by convention in mol/L.

As to `COc1cc2nccc(Oc3ccc(N(O)C=O)cc3)c2cc1OC` [Example 292, N-(4-((6,7-dimethoxyquinolin-4-yl)oxy)phenyl)-N-hydroxyformamide], the results for the pKi at ENPP1 [1] and on ENPP1 [3] were over 7.00 and under 6.00, respectively. Further, at ENPP1 [2], the “Substrate Selectivity: Ki_AMP-pNP/Ki_cGAMP” value (shortened to “Substrate Selectivity”) is on record as over 31.1.
The like results for `COc1ccc2c(NCc3ccc(NS(N)(=O)=O)cc3)ccnc2c1` [Example 267, N-(4-(((7-methoxyquinolin-4-yl)amino)methyl)phenyl)sulfamide] were, in that order, over 7.00, 6.00 to 7.00 and 22.5.
The like results for `COc1ccc2c(Oc3ccc(S(N)(=O)=O)cc3)ncnc2c1` [Example 356, 4-((7-methoxyquinazolin-4-yl)oxy)benzene sulfonamide] were, in that order, over 7.00, 6.00 to 7.00 and 40.
The corresponding values for `COc1cc2nccc(-c3ccc(CN(O)C=O)cc3)c2cc1OC` [Example 284, N-(4-(6,7-dimethoxyquinolin-4-yl)benzyl)-N-hydroxyformamide] are over 7.00, over 7.00 and 28.6.
As for `COc1cc2nccc(Oc3c(F)cc(NS(N)(=O)=O)cc3F)c2cc1OC` [Example 197, N-(4-((6,7-dimethoxyquinolin-4-yl)oxy)-3,5-difluorophenyl)sulfamide], the pKi was over 7.00 on ENPP1 [1] and under 6.00 at ENPP1 [3]. Further, the “Substrate Selectivity” value at ENPP1 [2] is given as over 49.7.
The corresponding values for `COc1cc2ncc(C#N)c(-c3ccc4c(c3)CN(S(N)(=O)=O)CC4)c2cc1OC` [Example 149, 7-(3-cyano-6,7-dimethoxyquinolin-4-yl)-3,4-dihydroisoquinoline-2(1H)-sulfonamide] are over 7.00, over 7.00 and 12.2.
The like results for `COc1cc2ncnc(N3CCC(CCS(N)(=O)=O)CC3)c2cc1OC` [Example 164, 2-(1-(6,7-dimethoxyquinazolin-4-yl)piperidin-4-yl)ethane-1-sulfonamide] were, in that order, over 7.00, over 7.00 and 14.8.
The corresponding values for `COc1cc2nccc(OCc3ccc(NS(N)(=O)=O)cc3)c2cc1OC` [Example 191, N-(4-(((6,7-dimethoxyquinolin-4-yl)oxy)methyl)phenyl) sulfamide] are 6.00 to 7.00, under 6.00 and over 25.0.
Turning to `COc1ccc2c(Nc3ccc(NS(N)(=O)=O)cc3)ccnc2n1` [Example 231, N-(4-((7-methoxy-1,8-naphthyridin-4-yl)amino)phenyl)sulfamide], the pKi on ENPP1 [1] and on ENPP1 [3] was over 7.00 each time. In addition, the “Substrate Selectivity” value at ENPP1 [2] was 30.9.
Regarding `COc1cc2ncc(-c3ccc(CNS(N)(=O)=O)cc3)n2cc1OC` [Example 266, N-(4-(6,7-dimethoxyimidazo[1,2-a]pyridin-3-yl)benzyl)sulfamide], the pKi is over 7.00 at ENPP1 [1] and 6.00 to 7.00 on ENPP1 [3]. For the same compound, on ENPP1 [2], the “Substrate Selectivity” value is recorded as over 5.9.
The like results for `COc1cc2nccc(Oc3ccc4c(c3)CNS(=O)(=O)N4)c2cc1OC` [Example 263, 6-((6,7-dimethoxyquinolin-4-yl)oxy)-3,4-dihydro-1H-benzo[c][1,2,6]thiadiazine 2,2-dioxide] were, in that order, 6.00 to 7.00, under 6.00 and over 61.9.
The corresponding values for `NS(=O)(=O)N1CCC2(CCN(c3ncnc4ccccc34)CC2)C1` [Example 158, 8-(quinazolin-4-yl)-2,8-diazaspiro [4.5] decane-2-sulfonamide] are over 7.00, 6.00 to 7.00 and 16.3.
The like results for `COc1ccc2c(-c3ccc(NS(N)(=O)=O)cc3)ccnc2c1` [Example 396, N-(4-(7-methoxyquinolin-4-yl)phenyl)sulfamide] were, in that order, 6.00 to 7.00, under 6.00 and over 20.
For the compound `COc1cc2ncnc(NCc3ccc(S(N)(=O)=O)cc3)c2cc1OC` [Example 182, 4-(((6,7-dimethoxyquinazolin-4-yl)amino)methyl)benzene sulfonamide], the results for the pKi on ENPP1 [1] and on ENPP1 [3] were over 7.00 and 6.00 to 7.00, respectively. For the same compound, the “Substrate Selectivity” value on ENPP1 [2] came to 24.7.
The corresponding values for `COc1cc2ncnc(-c3ccc4c(c3)CCN(S(N)(=O)=O)C4)c2cc1OC` [Example 121, 6-(6,7-dimethoxyquinazolin-4-yl)-3,4-dihydroisoquinoline-2(1H)-sulfonamide] are over 7.00, under 6.00 and over 61.5.
The like results for `NS(=O)(=O)N1CCc2ccc(-c3ncnc4ccccc34)cc2C1` [Example 150, 7-(quinazolin-4-yl)-3,4-dihydroisoquinoline-2(1H)-sulfonamide] were, in that order, 6.00 to 7.00, under 6.00 and over 158.
For `COc1cc2nccc(-c3ccc(CNS(N)(=O)=O)nc3)c2cc1OC` [Example 314, N-((5-(6,7-dimethoxyquinolin-4-yl)pyridin-2-yl)methyl)sulfamide], the results for the pKi at ENPP1 [1] and on ENPP1 [3] were over 7.00 and under 6.00, respectively. Besides, the “Substrate Selectivity” value on ENPP1 [2] is recorded as 35.7.
Turning to `COc1ccc2c(Nc3ccc(NS(N)(=O)=O)cc3)ccnc2c1F` [Example 269, N-(4-((8-fluoro-7-methoxyquinolin-4-yl)amino)phenyl)sulfamide], the results for the pKi at ENPP1 [1] and at ENPP1 [3] were over 7.00 and 6.00 to 7.00, respectively. Also, on ENPP1 [2], the “Substrate Selectivity” value is recorded as over 7.1.
Regarding `COc1cc2ncnc(NC(C)c3ccc(NS(N)(=O)=O)cc3)c2cc1OC` (stereo not drawn) [Example 140, N-(4-(1-((6,7-dimethoxyquinazolin-4-yl)amino)ethyl)phenyl) sulfamide], the pKi at ENPP1 [1] is over 7.00; on ENPP1 [3], 6.00 to 7.00. In addition, the “Substrate Selectivity” value on ENPP1 [2] amounted to 25.1.
The corresponding values for `COc1cc2c(N3CCC(CCNS(N)(=O)=O)CC3)c(C#N)cnc2cn1` [Example 216, N-(2-(1-(3-cyano-6-methoxy-1,7-naphthyridin-4-yl)piperidin-4-yl)ethyl)sulfamide] are over 7.00, under 6.00 and over 72.3.
The corresponding values for `COc1cc2ncn(-c3ccc(CCNS(N)(=O)=O)cc3)c2cc1OC` [Example 217, N-(4-(5,6-dimethoxy-1H-benzo[d]imidazol-1-yl)phenethyl)sulfamide] are 6.00 to 7.00, under 6.00 and over 18.2.
The corresponding values for `COc1ccc2c(-c3ccc(CS(N)(=O)=O)cc3)ccnc2c1` [Example 406, (4-(7-methoxy quinolin-4-yl)phenyl)methane sulfonamide] are 6.00 to 7.00, under 6.00 and over 65.
For `COc1cc2c(N3CCC(CCNS(N)(=O)=O)CC3)ncnc2cc1F` [Example 184, N-(2-(1-(7-fluoro-6-methoxyquinazolin-4-yl)piperidin-4-yl)ethyl)sulfamide], the pKi is 6.00 to 7.00 on ENPP1 [1] and under 6.00 at ENPP1 [3]. For the same compound, the “Substrate Selectivity” value on ENPP1 [2] is reported as over 18.0.
The like results for `COc1ccc2ncnc(-c3ccc(CNS(N)(=O)=O)cc3)c2c1` [Example 264, N-(4-(6-methoxyquinazolin-4-yl)benzyl)sulfamide] were, in that order, 6.00 to 7.00, under 6.00 and over 28.0.
The corresponding values for `COc1cc2nccc(N3CCC(CCNS(N)(=O)=O)CC3)c2cc1F` [Example 220, N-(2-(1-(6-fluoro-7-methoxyquinolin-4-yl)piperidin-4-yl)ethyl)sulfamide] are over 7.00, 6.00 to 7.00 and 35.9.
`NS(=O)(=O)Nc1ccc(Nc2ncnc3ncccc23)cc1` [Example 242, N-(4-(pyrido[2,3-d]pyrimidin-4-ylamino)phenyl)sulfamide]: the pKi at ENPP1 [1] was 6.00 to 7.00; at ENPP1 [3] it was under 6.00. Further, the “Substrate Selectivity” value on ENPP1 [2] is over 82.4.

The record behind these values is US20230183239A1, “ECTONUCLEOTIDE PYROPHOSPHATASE-PHOSPHODIESTERASE 1 (ENPP-1) INHIBITORS AND USES THEREOF” (AbbVie Inc., priority 2017, published 2023).
